From US20090082402A1, “Methods of treating genitourinary disorders using inhibitors of soluble epoxide hydrolase” (Roche Palo Alto LLC, priority 2006, published 2009)

System: bladder smooth muscle
Test: Contraction studies on isolated rat bladder strips with electrical field stimulation
Format: cell-based, Sprague-Dawley rat
Conditions: isolated bladder tissue
Procedure: Bladder strips from (male/female) Sprague-Dawley (Charles River) rat bladders were mounted in 10 ml tissue baths maintained at 37 C, containing 10 ml of a saline solution consisting of: NaCl (118.5 mM), KCl (4.8 mM), NaHCO3 (25 mM), KH2PO4 (1.2 mM), MgSO4 (1.2 mM), CaCl2 (2.5 mM), and glucose (11.0 mM). The bladder strips were aerated with a mixture of 95% O2 and 5% CO2. The tissues were initially equilibrated for one h with 1 g. resting weight. The control response to 67 mM KCl was then determined. Electrical field stimulation (EFS) was provided through platinum electrodes of 1.14 cm^2 surface area located one cm apart on either side of the tissue. Stimulation to the platinum electrodes was provided by a GRASS Medical Instruments (Quincy, Mass.) S88 Square Pulse Stimulator set to deliver 10 V pulses with a 0.5 ms pulse duration in a pulse train of 10 seconds at either 1, 2, 4, or 8 Hz.

SMILES: CCCCCC(O)C(O)CC=CCC=CCC=CCCCC(=O)O (stereo not shown) [14,15-DHET, 14,15-dihydroxyeicosatrienoic acid]
- effect on bladder smooth muscle stimulated by low frequency electric fields (relaxation): no effects

SMILES: CCCCCC1OC1CC=CCC=CCC=CCCCC(=O)O (stereo not shown) [14,15-EET, 14,15-epoxyeicosatrienoic acid]
- effect on bladder smooth muscle stimulated by low frequency electric fields (relaxation): relaxes bladder smooth muscle

SMILES: CCCCC/C=C\CC1OC1C/C=C\C/C=C\CCCC(=O)O (stereo not shown) [11,12-EET, 11,12-epoxyeicosatrienoic acid]
- effect on bladder smooth muscle stimulated by low frequency electric fields (relaxation): no effects

SMILES: CCCCC/C=C\C/C=C\CC1OC1C/C=C\CCCC(=O)O (stereo not shown) [8,9-EET, 8,9-epoxyeicosatrienoic acid]
- effect on bladder smooth muscle stimulated by low frequency electric fields (relaxation): no effects
